Source: ChEMBL document CHEMBL1201862, “PubChem BioAssay data set” (2004)
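These data come from cells grown in 96-well plates and exposed to compound for 48 hours at five concentrations. GI50: concentration for 50% inhibition of growth.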 Calls of active or inactive are those of the source. Rule as the data show it: active = GI50 up to about 1.1 µM and inactive = higher.

How the values were obtained:
Assay in all cases: NCI tumour cell line growth inhibition, 48 h
[1] = test system: UACC-257
[2] = test system: A498
[3] = test system: SNB-19
[4] = test system: SK-MEL-28
[5] = test system: NCI-H460
[6] = test system: MOLT-4
[7] = test system: 786-0
[8] = test system: SK-MEL-2
[9] = test system: NCI-H226
[10] = test system: K562
[11] = test system: KM12
[12] = test system: HOP-62
[13] = test system: OVCAR-5
[14] = test system: LXFL 529
[15] = test system: NCI-H23
[16] = test system: EKVX
[17] = test system: HOP-92
[18] = test system: SNB-75
[19] = test system: Malme-3M
[20] = test system: HT-29
[21] = test system: RXF 393
[22] = test system: SR
[23] = test system: SF-539
[24] = test system: OVCAR-8
[25] = test system: SW-620
[26] = test system: SK-OV-3
[27] = test system: HCT-15
[28] = test system: A549
[29] = test system: UACC-62
[30] = test system: HOP-18
[31] = test system: OVCAR-3
[32] = test system: SF-268
[33] = test system: KM-20L2
[34] = test system: M14
[35] = test system: SK-MEL-5
[36] = test system: DMS-114
[37] = test system: HCC 2998
[38] = test system: SF-295
[39] = test system: DMS-273
[40] = test system: M19-MEL
[41] = test system: HL-60
[42] = test system: XF498
[43] = test system: NCI-H522
[44] = test system: OVCAR-4
[45] = test system: SNB-78
[46] = test system: LOX IMVI
[47] = test system: U-251
[48] = test system: UO-31
[49] = test system: CCRF-CEM
[50] = test system: COLO 205
[51] = test system: CAKI-1
[52] = test system: IGROV-1
[53] = test system: DLD-1
[54] = test system: HCT-116
[55] = test system: ACHN
[56] = test system: RPMI-8226
[57] = test system: SN12C
[58] = test system: RXF 631
[59] = test system: TK-10

Q: How did the GI50 [1] turn out when COC(=O)C1C2C=CC(C2)C1(C(=O)OC)[S+]([O-])CC12CCC(CC1O)C2(C)C (centres undefined) was run?
A: The GI50 was > 100 µM (inactive).

Q: What about the GI50 [2] of the same compound?
A: Its GI50 is > 100 µM (inactive).

Q: What about the GI50 [3] of the same compound?
A: The GI50 was > 100 µM (inactive).

Q: And the GI50 [4]?
A: Its GI50 is > 100 µM (inactive).

Q: What about the GI50 [5] of the same compound?
A: The GI50 was > 100 µM (inactive).

Q: And the GI50 [6]?
A: Its GI50 is > 100 µM (inactive).

Q: And the GI50 [7]?
A: The GI50 was > 100 µM (inactive).

Q: And the GI50 [8]?
A: The GI50 was > 100 µM (inactive).

Q: What about the GI50 [9] of the same compound?
A: The GI50 was > 100 µM (inactive).

Q: And the GI50 [10]?
A: The GI50 was 39.4 µM (inactive).

Q: What about the GI50 [11] of the same compound?
A: The GI50 was > 100 µM (inactive).

Q: And the GI50 [12]?
A: The GI50 was > 100 µM (inactive).

Q: And the GI50 [13]?
A: Its GI50 is > 100 µM (inactive).

Q: What about the GI50 [14] of the same compound?
A: The GI50 was > 100 µM (inactive).

Q: And the GI50 [15]?
A: The GI50 was > 100 µM (inactive).

Q: What about the GI50 [16] of the same compound?
A: The GI50 was > 100 µM (inactive).

Q: What about the GI50 [17] of the same compound?
A: Its GI50 is > 100 µM (inactive).

Q: What about the GI50 [18] of the same compound?
A: The GI50 was > 100 µM (inactive).

Q: What about the GI50 [19] of the same compound?
A: Its GI50 is > 100 µM (inactive).

Q: And the GI50 [20]?
A: Its GI50 is > 100 µM (inactive).

Q: What about the GI50 [21] of the same compound?
A: The GI50 was 77.8 µM (inactive).

Q: What about the GI50 [22] of the same compound?
A: Its GI50 is 31.2 µM (inactive).

Q: What about the GI50 [23] of the same compound?
A: The GI50 was > 100 µM (inactive).

Q: And the GI50 [24]?
A: Its GI50 is > 100 µM (inactive).

Q: And the GI50 [25]?
A: The GI50 was 16 µM (inactive).

Q: What about the GI50 [26] of the same compound?
A: The GI50 was > 100 µM (inactive).

Q: What about the GI50 [27] of the same compound?
A: The GI50 was 19.2 µM.

Q: What about the GI50 [28] of the same compound?
A: The GI50 was > 100 µM (inactive).

Q: And the GI50 [29]?
A: The GI50 was > 100 µM (inactive).

Q: What about the GI50 [30] of the same compound?
A: The GI50 was > 100 µM (inactive).

Q: What about the GI50 [31] of the same compound?
A: The GI50 was > 100 µM (inactive).

Q: And the GI50 [32]?
A: Its GI50 is > 100 µM (inactive).

Q: And the GI50 [33]?
A: The GI50 was > 100 µM (inactive).

Q: What about the GI50 [34] of the same compound?
A: The GI50 was > 100 µM (inactive).

Q: What about the GI50 [35] of the same compound?
A: Its GI50 is > 100 µM (inactive).

Q: And the GI50 [36]?
A: The GI50 was 85.7 µM (inactive).

Q: And the GI50 [37]?
A: Its GI50 is > 100 µM (inactive).

Q: What about the GI50 [38] of the same compound?
A: Its GI50 is > 100 µM (inactive).

Q: What about the GI50 [39] of the same compound?
A: The GI50 was 44.4 µM (inactive).

Q: What about the GI50 [40] of the same compound?
A: The GI50 was > 100 µM (inactive).

Q: And the GI50 [41]?
A: Its GI50 is > 100 µM (inactive).

Q: And the GI50 [42]?
A: The GI50 was > 100 µM (inactive).

Q: And the GI50 [43]?
A: Its GI50 is > 100 µM (inactive).

Q: What about the GI50 [44] of the same compound?
A: The GI50 was > 100 µM (inactive).

Q: And the GI50 [45]?
A: Its GI50 is > 100 µM (inactive).

Q: What about the GI50 [46] of the same compound?
A: The GI50 was 21.1 µM (inactive).

Q: What about the GI50 [47] of the same compound?
A: Its GI50 is > 100 µM (inactive).

Q: What about the GI50 [48] of the same compound?
A: The GI50 was > 100 µM (inactive).

Q: And the GI50 [49]?
A: Its GI50 is > 100 µM (inactive).

Q: What about the GI50 [50] of the same compound?
A: The GI50 was > 100 µM (inactive).

Q: And the GI50 [51]?
A: The GI50 was > 100 µM (inactive).

Q: What about the GI50 [52] of the same compound?
A: Its GI50 is > 100 µM (inactive).

Q: And the GI50 [53]?
A: Its GI50 is 60.8 µM (inactive).

Q: And the GI50 [54]?
A: The GI50 was > 100 µM (inactive).

Q: And the GI50 [55]?
A: The GI50 was > 100 µM (inactive).

Q: And the GI50 [56]?
A: The GI50 was 70.1 µM (inactive).

Q: What about the GI50 [57] of the same compound?
A: The GI50 was > 100 µM (inactive).

Q: And the GI50 [58]?
A: The GI50 was > 100 µM (inactive).

Q: What about the GI50 [59] of the same compound?
A: The GI50 was > 100 µM (inactive).
